Read-outs that look alike come from different tables or passages of the source.
What was measured:
[1] = molecular target: human CB1 receptors (Homo sapiens (Human), UniProt P21554); assay: cAMP assay, CHO cells expressing human CB1 receptors; format: cell-based
Procedure, shortened: (§1)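 CHO cells, KRB buffer + 1 mM IBMX, 30 min 30 °C preincubation; compound 30 min 30 °C; lysis + TR-FRET cAMP detection, 2 h RT; cAMP from standard curve (10 μM–0.13 nM); EC50.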

[2] = molecular target: human CB2 receptors (Homo sapiens (Human), UniProt P34972); assay: cAMP assay, CHO cells expressing human CB2 receptors; format: cell-based
Procedure, shortened: as §1

[3] = CHO cells expressing human CB1, cAMP, read-out: human CB1 EC50
[4] = CHO cells expressing human CB2, cAMP, read-out: human CB2 EC50

human CB2 receptors, sequence (P34972 whole entry): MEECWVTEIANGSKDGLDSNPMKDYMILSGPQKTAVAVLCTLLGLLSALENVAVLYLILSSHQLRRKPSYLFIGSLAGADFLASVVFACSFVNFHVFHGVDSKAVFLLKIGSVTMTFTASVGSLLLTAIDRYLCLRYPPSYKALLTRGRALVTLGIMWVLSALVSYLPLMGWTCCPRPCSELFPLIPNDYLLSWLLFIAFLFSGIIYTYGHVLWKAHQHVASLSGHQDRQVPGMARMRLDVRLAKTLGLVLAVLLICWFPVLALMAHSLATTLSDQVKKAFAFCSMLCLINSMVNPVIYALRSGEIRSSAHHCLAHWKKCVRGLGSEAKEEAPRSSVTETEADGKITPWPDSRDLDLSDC
human CB1 receptors, sequence (P21554 whole entry): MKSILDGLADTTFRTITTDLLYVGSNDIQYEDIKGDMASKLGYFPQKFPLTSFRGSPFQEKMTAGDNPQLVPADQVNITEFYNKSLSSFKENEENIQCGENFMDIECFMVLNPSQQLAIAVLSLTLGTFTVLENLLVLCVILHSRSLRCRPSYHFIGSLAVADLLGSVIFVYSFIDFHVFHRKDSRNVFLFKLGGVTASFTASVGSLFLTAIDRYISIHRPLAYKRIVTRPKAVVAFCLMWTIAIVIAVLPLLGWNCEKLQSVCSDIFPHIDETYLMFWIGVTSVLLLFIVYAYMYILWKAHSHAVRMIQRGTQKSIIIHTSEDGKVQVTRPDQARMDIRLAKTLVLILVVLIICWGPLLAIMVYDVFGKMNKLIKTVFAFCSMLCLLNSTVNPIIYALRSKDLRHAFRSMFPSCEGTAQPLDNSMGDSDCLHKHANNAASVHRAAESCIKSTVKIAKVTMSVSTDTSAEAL

Compound | EC50 [1, 3] | EC50 [2, 4] | EC50 [1] | EC50 [2]
CC(C)C[C@H](NC(=O)c1ccc(C2CC2)c(OCC2CCCO2)n1)C(N)=O (stereo partly drawn) [Example 186, N-((S)-1-Amino-4-methyl-1-oxopentan-2-yl)-5-cyclopropyl-6-((tetrahydrofuran-2-yl)methoxy)picolinamide] | 1490 nM | 1.1 nM |  | 
CC(C)(NC(=O)c1ccc(Cl)c(-c2cccc(Cl)c2)n1)c1ncco1 [Example 104, 5-Chloro-6-(3-chloro-phenyl)-pyridine-2-carboxylic acid (1-methyl-1-oxazol-2-yl-ethyl)-amide] | > 10000 nM | 517 nM |  | 
CC(C)(NC(=O)c1ccc(Cl)c(OCC2CC2)n1)c1ncon1 [Example 83, 5-Chloro-6-cyclopropylmethoxy-pyridine-2-carboxylic acid (1-methyl-1-[1,2,4]oxadiazol-3-yl-ethyl)-amide] | > 10000 nM | 347 nM |  | 
Cc1nc(C(C)(C)NC(=O)c2cccc(-c3ccc(Cl)cc3)n2)no1 [Example 3, 6-(4-Chloro-phenyl)-pyridine-2-carboxylic acid [1-methyl-1-(5-methyl-[1,2,4]oxadiazol-3-yl)-ethyl]-amide] | > 10000 nM | 341 nM |  | 
COCCOc1nc(C(=O)N[C@@H](CC(C)C)C(N)=O)ccc1C1CC1 [Example 142, 5-Cyclopropyl-6-(2-methoxy-ethoxy)-pyridine-2-carboxylic acid ((S)-1-carbamoyl-3-methyl-butyl)-amide] | > 10000 nM | 14.4 nM |  | 
CC(C)(NC(=O)c1ccc(C2CC2)c(OCC2CC2)n1)c1ccccn1 [Example 285, 5-Cyclopropyl-6-cyclopropylmethoxy-pyridine-2-carboxylic acid (1-methyl-1-pyridin-2-yl-ethyl)-amide] | 703 nM | 31.6 nM |  | 
CNC(=O)[C@@H](NC(=O)c1cccc(-c2ccc(F)c(Cl)c2)n1)C(C)(C)C [Example 216, (S)-6-(3-Chloro-4-fluorophenyl)-N-(3,3-dimethyl-1-(methylamino)-1-oxobutan-2-yl)picolinamide] | 116 nM | 2.7 nM |  | 
O=C(N[C@@H](CC1CC1)c1nccs1)c1cccc(-c2cccc(Cl)c2)n1 [Example 60, 6-(3-Chloro-phenyl)-pyridine-2-carboxylic acid ((S)-2-cyclopropyl-1-thiazol-2-yl-ethyl)-amide] | > 10000 nM | 62.2 nM |  | 
O=C(N[C@@H](CC1CC1)c1nccs1)c1ccc(C2CCOCC2)c(OCC2CC2)n1 [Example 59, 6-Cyclopropylmethoxy-5-(tetrahydro-pyran-4-yl)-pyridine-2-carboxylic acid ((S)-2-cyclopropyl-1-thiazol-2-yl-ethyl)-amide] | > 10000 nM | 32.5 nM |  | 
CC(C)CSc1cccc(C(=O)N[C@@H](CC(C)C)C(N)=O)n1 [Example 331, 6-Isobutylsulfanyl-pyridine-2-carboxylic acid ((S)-1-carbamoyl-3-methyl-butyl)-amide] | > 10000 nM | 16.6 nM |  | 
Cc1nc([C@@H](C)NC(=O)c2ccc(C3CC3)c(OCC3CC3)n2)no1 [Example 241, 5-Cyclopropyl-6-cyclopropylmethoxy-pyridine-2-carboxylic acid [(−)-1-(5-methyl-[1,2,4]oxadiazol-3-yl)-ethyl]-amide] | > 10000 nM | 49.1 nM |  | 
CC(C)(CCN1CCOCC1)NC(=O)c1ccc(C2CC2)c(OCC2CC2)n1 [Example 154, 5-Cyclopropyl-6-cyclopropylmethoxy-pyridine-2-carboxylic acid (1,1-dimethyl-3-morpholin-4-yl-propyl)-amide] | > 10000 nM | 150 nM |  | 
CC(C)C[C@H](NC(=O)c1ccc(Br)c(Oc2ccc(F)cc2)n1)C(N)=O [Example 177, 5-Bromo-6-(4-fluoro-phenoxy)-pyridine-2-carboxylic acid ((S)-1-carbamoyl-3-methyl-butyl)-amide] | > 10000 nM | 196 nM |  | 
CC(C)C[C@H](NC(=O)c1ccc(C2CC2)c(OCC2CC2)n1)C(=O)N(C)C [Example 231, 5-Cyclopropyl-6-cyclopropylmethoxy-pyridine-2-carboxylic acid ((S)-1-dimethylcarbamoyl-3-methyl-butyl)-amide] | 678 nM | 1.4 nM |  | 
Cc1nc(C(C)(C)NC(=O)c2ccc(C)c(-c3cccc(Cl)c3)n2)no1 [Example 51, 6-(3-Chloro-phenyl)-5-methyl-pyridine-2-carboxylic acid [1-methyl-1-(5-methyl-[1,2,4]oxadiazol-3-yl)-ethyl]-amide] | > 10000 nM | 127 nM |  | 
CNC(=O)[C@H](CC(C)(C)C)NC(=O)c1ccc(C2CC2)c(S(=O)(=O)CC(C)C)n1 [Example 361, 5-Cyclopropyl-6-(2-methyl-propane-1-sulfonyl)-pyridine-2-carboxylic acid ((S)-3,3-dimethyl-1-methylcarbamoyl-butyl)-amide] | > 10000 nM | 42.5 nM |  | 

Compound | EC50 [1, 3] | EC50 [2, 4] | EC50 [1] | EC50 [2]
CC(C)(NC(=O)c1ccc(N2CC(F)(F)C2)c(OCC(F)(F)F)n1)c1nccs1 [Example 288, 5-(3,3-Difluoro-azetidin-1-yl)-6-(2,2,2-trifluoro-ethoxy)-pyridine-2-carboxylic acid (1-methyl-4-thiazol-2-yl-ethyl)-amide] | > 10000 nM | 163 nM |  | 
CC(C)C[C@H](NC(=O)c1ccc(C2CC2)c(OC(C)C(F)(F)F)n1)C(N)=O (stereo partly drawn) [Example 372, 5-Cyclopropyl-6-(2,2,2-trifluoro-1-methyl-ethoxy)-pyridine-2-carboxylic acid ((S)-1-carbamoyl-3-methyl-butyl)-amide] |  |  | > 10000 nM | 53.4 nM
CC1(COc2nc(C(=O)NC3(c4nccs4)COC3)ccc2Br)COC1 [Example 281, 5-Bromo-6-(3-methyl-oxetan-3-ylmethoxy)-pyridine-2-carboxylic acid (3-thiazol-2-yl-oxetan-3-yl)-amide] | > 10000 nM | 447 nM |  | 
Cc1csc(C(C)(C)NC(=O)c2ccc(C3CC3)c(OCC3CC3)n2)n1 [Example 294, 5-Cyclopropyl-6-cyclopropylmethoxy-pyridine-2-carboxylic acid [1-methyl-1-(4-methyl-thiazol-2-yl)-ethyl]-amide] | > 10000 nM | 112 nM |  | 
O=C(NN1CCCCC1)c1cccc(-c2cccc(Cl)c2)n1 [Example 11, 6-(3-Chloro-phenyl)-pyridine-2-carboxylic acid piperidin-1-ylamide] | > 10000 nM | 63.6 nM |  | 
Cc1nc([C@H](CC2CC2)NC(=O)c2ccc(C3CCCC3)c(OCC3CC3)n2)no1 [Example 53, 5-Cyclopentyl-6-cyclopropylmethoxy-pyridine-2-carboxylic acid [(S)-2-cyclopropyl-1-(5-methyl-[1,2,4]oxadiazol-3-yl)-ethyl]-amide] | > 10000 nM | 45.7 nM |  | 
Cc1nc(C(C)(C)NC(=O)c2ccc(C3CCOC3)c(-c3cccc(Cl)c3)n2)no1 (stereo not shown) [Example 151, 6-(3-Chloro-phenyl)-5-(tetrahydro-furan-3-yl)-pyridine-2-carboxylic acid [1-methyl-1-(5-methyl-[1,2,4]oxadiazol-3-yl)-ethyl]-amide] | > 10000 nM | 351 nM |  | 
Cc1nc([C@H](CC2CC2)NC(=O)c2ccc(N3CC(F)(F)C3)c(-c3cccc(Cl)c3)n2)no1 [Example 164, 6-(3-Chloro-phenyl)-5-(3,3-difluoro-azetidin-1-yl)-pyridine-2-carboxylic acid [(S)-2-cyclopropyl-1-(5-methyl-[1,2,4]oxadiazol-3-yl)-ethyl]-amide] | > 10000 nM | 249 nM |  | 
Cc1nc([C@](C)(NC(=O)c2ccc(C3CC3)c(S(=O)(=O)CC(C)C)n2)C2CC2)no1 [Example 381, (+)-5-Cyclopropyl-6-(2-methyl-propane-1-sulfonyl)-pyridine-2-carboxylic acid [1-cyclopropyl-1-(5-methyl-[1,2,4]oxadiazol-3-yl)-ethyl]-amide] | 240 nM | 11.4 nM |  | 
CC(C)(C)NC(=O)c1ccc(C2CC2)c(OCC2CC2)n1 [Example 368, 5-Cyclopropyl-6-cyclopropylmethoxy-pyridine-2-carboxylic acid tert-butylamide] | > 10000 nM | 26.3 nM |  | 
Cc1ccc(C(=O)NC(C)(C)c2ncco2)nc1-c1cccc(Cl)c1 [Example 49, 6-(3-Chloro-phenyl)-5-methyl-pyridine-2-carboxylic acid (1-methyl-1-oxazol-2-yl-ethyl)-amide] | > 10000 nM | 308 nM |  | 
Cc1nc([C@H](CC2CC2)NC(=O)c2cccc(-c3cccc(F)c3)n2)no1 [Example 347, 6-(3-Fluoro-phenyl)-pyridine-2-carboxylic acid [(S)-2-cyclopropyl-1-(5-methyl-[1,2,4]oxadiazol-3-yl)-ethyl]-amide] | > 10000 nM | 50 nM |  | 
CNC(=O)[C@H](CC(C)(C)C)NC(=O)c1ccc(N2CCC23COC3)c(OCC2CC2)n1 [Example 234, 6-Cyclopropylmethoxy-5-(6-oxa-1-aza-spiro[3.3]hept-1-yl)-pyridine-2-carboxylic acid ((S)-3,3-dimethyl-1-methylcarbamoyl-butyl)-amide] | > 10000 nM | 8.3 nM |  | 
O=C(NC1(CO)CCCC1)c1ccc(C2CC2)c(OCC2CC2)n1 [Example 175, 5-Cyclopropyl-6-(cyclopropylmethoxy)-N-(1-(hydroxymethyl)cyclopentyl)picolinamide] | > 10000 nM | 47.8 nM |  | 
COc1ccc(C(=O)NC(C)(C)c2ncco2)nc1-c1cccc(Cl)c1 [Example 90, 6-(3-Chloro-phenyl)-5-methoxy-pyridine-2-carboxylic acid (1-methyl-1-oxazol-2-yl-ethyl)-amide] | > 10000 nM | 217 nM |  | 
Cc1ccc(C(=O)NN2CCCCC2)nc1OCC1CC1 [Example 47, 6-Cyclopropylmethoxy-5-methyl-pyridine-2-carboxylic acid piperidin-1-ylamide] | > 10000 nM | 138 nM |  | 

Source: patent US9290451B2 (Hoffmann-La Roche Inc., priority 2011, dated 2016)
